Measured values: patent publication US8518923B2, “Treatment or prevention of hypertensive disorders of pregnancy or fetal growth retardation” (Pantarhei Bioscience B.V., priority 2007, dated 2013)

Key:
[1] = test system: Myometrial arteries; assay: Ex-vivo relaxation response in myometrial arteries on pressure myograph; parameters: species or system human; details: for relaxation in myometrial arteries: arteries from normal pregnant women, pressure myograph, concentration response (FIG. 1)
Description: (§1) To evaluate acute dilatory responses to estetrol in human vasculature ex-vivo, the following study has been conducted. Myometrial arteries and subcutaneous arteries (diameter: 220 μm; length: 2-3 mm) were dissected from normal pregnant women undergoing planned caesarian section. Myometrial arteries are present in the uterus and are branches from the arteria uterina. Cigarette smokers and women with hypertension, diabetes mellitus, clinical manifestations of arteriosclerosis (CHD, peripheral artery disease, cerebrovascular disease), venous thromboembolic disease, liver disorders, unexplained vaginal bleeding, and personal or family history of breast cancer were excluded. None had received HRT, other steroid hormones, or any medication known to affect lipoprotein metabolism or blood pressure. The dissected arteries were mounted on a pressure myograph (LSI, USA). The organ bath was perfused (7 ml/min) with PSS (mM: NaCl 119, KCl 4.7, CaCl2 2.5, MgSO4 1.17, NaHCO3 25, KH2PO4 1.18, EDTA 0.026 and glucose 5.5; pH 7.4, 37° C., gassed with 5% CO2 in O2). […] FIG. 1 depicts the response curve of estetrol and PPT in the myometrial arteries. The number of subjects is mentioned in parenthesis.

[2] = test system: subcutaneous arteries; assay: Ex-vivo relaxation response in subcutaneous arteries on pressure myograph; parameters: species or system human; details: arteries from normal pregnant women, concentration response (FIG. 2)
Description: as §1, with “FIG. 2” for “FIG. 1”, “the subcutaneous” for “the myometrial”, “arteries. Again, the” for “arteries. The”

Compound | relaxation in myometrial arteries [1] | relaxation in subcutaneous arteries [2] | selective effect: relaxation in myometrial arteries compared to subcutaneous arteries ([1]; comparison of FIGS. 1 and 2)
CCCc1c(-c2ccc(O)cc2)nn(-c2ccc(O)cc2)c1-c1ccc(O)cc1 [PPT, [1H]-pyrazole-1,3,5-tri-trisphenol, reference compound] | capable of inducing relaxation | capable of inducing relaxation | 
C[C@]12CC[C@@H]3c4ccc(O)cc4CC[C@H]3[C@@H]1[C@@H](O)[C@@H](O)[C@@H]2O [estetrol, 1,3,5 (10)-estratrien-3,15α,16α,17β-tetrol] | capable of inducing relaxation | capable of inducing relaxation | more pronounced in the myometrial arteries compared to the subcutaneous arteries
